In patent US12384753B2, “17-beta-hydroxysteroid dehydrogenase type 13 inhibitors and methods of use thereof” (Enanta Pharmaceuticals, Inc., priority 2021, dated 2025):

Target: Recombinant human HSD17B13 (Homo sapiens (Human), UniProt Q7Z5P4)
Assay: HSD17B13 rapid-fire mass spectrometry assay (RF/MS assay)
Format: biochemical
Conditions: inhibition of HSD17B13; LTB4 10 μM, NAD+ 0.5 mM, RT 3 h; IC50 ranges A-E
Procedure, shortened: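 Sf9-expressed human HSD17B13 (80 nM) with 10 μM LTB4 and 0.5 mM NAD+, incubated with compound (0–100 μM) for 3 h at RT in Tris pH 7.5/BSA/Tween-20. After formic acid quench, LTB4 conversion to 12-oxo-LTB4 measured by RapidFire MS/MS. IC50 from normalised residual activity, duplicates.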

Chain of Recombinant human HSD17B13 (Q7Z5P4 20-300): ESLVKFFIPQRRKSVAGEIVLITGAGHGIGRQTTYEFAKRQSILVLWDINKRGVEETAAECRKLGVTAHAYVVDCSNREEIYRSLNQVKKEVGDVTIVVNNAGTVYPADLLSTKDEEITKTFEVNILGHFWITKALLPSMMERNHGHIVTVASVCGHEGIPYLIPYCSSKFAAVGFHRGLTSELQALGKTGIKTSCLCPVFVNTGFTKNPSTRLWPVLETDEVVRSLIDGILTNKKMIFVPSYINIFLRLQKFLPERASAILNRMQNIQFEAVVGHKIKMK

SMILES | IC50 [nM]
COc1cc(C(=O)O)ccc1NS(=O)(=O)c1csc(C#Cc2ccc(C(=O)O)c(OC(F)(F)F)c2)n1 [Example 394] | 1000 to 100000
COc1cc(C(=O)O)ccc1NS(=O)(=O)c1csc(N2CCCCC2c2ccccc2)n1 (centres unmarked) [Example 270] | 100 to 500
N#Cc1cc(C(=O)O)ccc1NS(=O)(=O)c1cnc(-c2ccc(F)cc2)s1 [Example 76] | 500 to 1000
CC[C@H]1CC[C@H](c2ccc(-c3cccc(S(=O)(=O)Nc4cc(F)c(C(=O)O)cc4OC)c3F)cc2)CC1 [Example 501] | < 100
CCC1CC=C(c2ccc(-c3nc(S(=O)(=O)Nc4ccc(C(=O)O)cc4OC)co3)cc2)CC1 (centres unmarked) [Example 487] | 100 to 500
COc1cc(C(=O)O)ccc1NS(=O)(=O)c1csc(-c2cccc(F)c2)n1 [Example 95] | 100 to 500
COc1cc(C(=O)O)c(F)cc1NS(=O)(=O)c1csc(-c2ccc([C@]3(CO)CC[C@@H](C(F)(F)F)CC3)cc2)n1 [Example 532] | 500 to 1000
COc1cc(C(=O)O)c(F)cc1NS(=O)(=O)c1csc(-c2ccc(-c3ccc(C(F)(C(F)(F)F)C(F)(F)F)cc3)cc2C(F)(F)F)n1 [Example 795] | < 100
COc1cc(C(=O)O)c(F)cc1NS(=O)(=O)c1csc(-c2ccc(CC3CCCCC3)cc2)n1 [Example 624] | 100 to 500
O=C(O)c1cccc(NS(=O)(=O)c2cnc(-c3ccc(F)cc3)s2)c1 [Example 17] | > 100000
O=S(=O)(Nc1ccc(O)cc1O)c1cnc(-c2ccc(F)cc2)s1 [Example 109] | 1000 to 100000
COc1cc(C(=O)O)ccc1NS(=O)(=O)N1Cc2ccc(-c3ccc(F)cc3)cc2C1 [Example 338] | 100 to 500
COc1cc(C(=O)O)ccc1NS(=O)(=O)c1csc(C#Cc2ccc(F)c(OC(F)(F)F)c2)n1 [Example 393, 4-((2-((4-fluoro-3-(trifluoromethoxy)phenyl)ethynyl)thiazole)-4-sulfonamido)-3-methoxybenzoic acid] | < 100
COc1cc(C(=O)O)c(F)cc1NS(=O)(=O)c1coc(-c2ccc(C3=CCC(C(F)(F)F)CC3)cc2)n1 (centres unmarked) [Example 483] | < 100
COc1cc(C(=O)O)c(F)cc1NS(=O)(=O)c1ncc(-c2ccc([C@H]3CC[C@H](C(F)(F)F)CC3)cc2)s1 [Example 621] | 100 to 500
COc1cc(C(=O)O)ccc1NS(=O)(=O)c1csc(/C=C/c2ccccc2)n1 [Example 167] | 100 to 500
CN(C)c1cc(C(=O)O)ccc1NS(=O)(=O)c1csc(-c2ccc(C3CCC(C)(C)CC3)cc2C(F)(F)F)n1 [Example 697] | 1000 to 100000
O=C(O)c1ccc(NS(=O)(=O)c2cnc(-c3ccc(F)cc3)s2)c(C2CC2)c1 [Example 44] | 1000 to 100000
COc1cc(C(=O)O)ccc1NS(=O)(=O)c1coc(-c2ccc(C(C)(C)C)cc2)n1 [Example 465] | 100 to 500
COc1cc(C(=O)O)ccc1NS(=O)(=O)c1ccc(-c2cccc(-c3ccc(OC(F)(F)F)cc3)c2)s1 [Example 254] | 500 to 1000
COc1cc(C(=O)O)ccc1NS(=O)(=O)c1csc(-c2ccc(-c3ccc(F)cc3)cc2)n1 [Example 296] | 1000 to 100000
COc1cc(C(=O)O)c(F)cc1NS(=O)(=O)c1cnc(-c2ccc(C3=CCC(C(C)C)CC3)cc2)s1 (centres unmarked) [Example 765] | 100 to 500

SMILES | IC50 [nM]
O=C(O)c1ccc(NS(=O)(=O)c2csc(N3CCOCC3)n2)cc1 [Example 57, 4-((2-morpholinothiazole)-4-sulfonamido)benzoic acid] | 1000 to 100000
COc1cc(C(=O)O)ccc1NS(=O)(=O)c1coc(-c2ccc(C)cc2)n1 [Example 413] | < 100
COc1cc(C(=O)O)ccc1NS(=O)(=O)c1csc(-c2ccc(C3CCCC(OC)C3)cc2)n1 (centres unmarked) [Example 426, 3-methoxy-4-((2-(4-(3-methoxycyclohexyl)phenyl)thiazole)-4-sulfonamido)benzoic acid] | 100 to 500
COc1cc(C(=O)O)c(F)cc1NS(=O)(=O)c1csc(C#Cc2ccc(C(F)(F)F)cc2)n1 [Example 227] | < 100
COc1cc(C(=O)O)c(F)cc1NS(=O)(=O)c1ccc2nc(-c3ccc(C4CCCCC4)cc3)sc2c1 [Example 661] | 100 to 500
COc1cc(C(=O)O)c(F)cc1NS(=O)(=O)c1cnn(-c2ccc(C3CCCCC3)cc2)c1 [Example 656] | 100 to 500
COc1cc(C(=O)O)ccc1NS(=O)(=O)c1csc(-c2ccccc2C(F)(F)F)n1 [Example 127] | 500 to 1000
COc1cc(C(=O)O)ccc1NS(=O)(=O)c1coc(-c2ccc(C(F)(F)F)cc2)n1 [Example 414] | < 100
COc1cc(C(=O)O)ccc1NS(=O)(=O)c1csc(-c2ccc(C3CCC(OC)CC3)cc2)n1 (centres unmarked) [Example 380] | 100 to 500
COc1cc(C(=O)O)c(F)cc1NS(=O)(=O)c1csc(-c2ccc(-c3ccc(C45CC6C[C@H](C4)C[C@H](C6)C5)cc3)cc2C(F)(F)F)n1 [Example 775] | < 100
COc1cc(C(=O)O)c(F)cc1NS(=O)(=O)c1csc(-c2ccc([C@H]3CC[C@H](C(C)C)CC3)c(F)c2C)n1 [Example 806] | < 100
COc1cc(C(=O)O)ccc1NS(=O)(=O)N1Cc2nc(-c3ccc([C@H]4CC[C@H](C(F)(F)F)CC4)cc3)sc2C1 [Example 460] | 1000 to 100000
COc1cc(-c2ccc(C(=O)O)cc2)ccc1NS(=O)(=O)c1cnc(-c2ccc(F)cc2)s1 [Example 389, 4′-((2-(4-fluorophenyl)thiazole)-5-sulfonamido)-3′-methoxy-[1,1′-biphenyl]-4-carboxylic acid] | 1000 to 100000
COc1cc(C(=O)O)ccc1NS(=O)(=O)c1csc(C#Cc2cc(C(F)(F)F)[nH]c(=O)c2)n1 [Example 247, 3-methoxy-4-((2-((2-oxo-6-(trifluoromethyl)-1,2-dihydropyridin-4-yl)ethynyl)thiazole)-4-sulfonamido)benzoic acid] | 100 to 500
CCC[C@H]1CC[C@H](C2CC=C(c3nc(S(=O)(=O)Nc4cc(F)c(C(=O)O)cc4OC)cs3)CC2)CC1 (some centres unmarked) [Example 779] | 100 to 500
COc1ccc(-c2nc(S(=O)(=O)Nc3ccc(C(=O)O)cc3OC)co2)cc1 [Example 415] | < 100
COc1cc(C(=O)O)ccc1NS(=O)(=O)c1csc(-c2ccc(C3CCC(OC(F)(F)F)CC3)cc2)n1 (centres unmarked) [Example 367] | < 100
O=C(O)c1ccc(NS(=O)(=O)c2cnc(-c3ccc(F)cc3)s2)c2ccccc12 [Example 87] | 1000 to 100000
COc1cc(C(=O)O)c(F)cc1NS(=O)(=O)c1csc(-c2ccc(-c3ccc4c(c3)NCCO4)cc2)n1 [Example 653] | < 100
COc1cc(C(=O)O)ccc1NS(=O)(=O)c1csc(-c2cccc(O)c2)n1 [Example 146] | 100 to 500
COc1cc(C(=O)O)c(F)cc1NS(=O)(=O)c1cnc(-c2ccc([C@H]3CC[C@@H](C(C)C)CC3)cc2)s1 [Example 729] | 100 to 500
COc1cc(C(=O)O)c(F)cc1NS(=O)(=O)c1cnc(-c2ccc(-c3ccc(C(F)(F)C(F)(F)F)cc3)cc2)s1 [Example 770] | < 100

SMILES | IC50 [nM]
CCOP(=O)(O)c1ccc(NS(=O)(=O)c2csc(C#Cc3cccc(OC(F)(F)F)c3)n2)c(OC)c1 [Example 400, ethyl hydrogen (3-methoxy-4-((2-((3-(trifluoromethoxy)phenyl)ethynyl)thiazole)-4-sulfonamido)phenyl)phosphonate] | 1000 to 100000
COc1cc(C(=O)O)ccc1NS(=O)(=O)c1csc(-c2ccc(C3CCC(C)(C)CC3)cc2)n1 [Example 336] | < 100
COc1ccc(NS(=O)(=O)c2cnc(-c3ccc(F)cc3)s2)cc1Cl [Example 113] | 1000 to 100000
COc1cc(C(=O)O)ccc1NS(=O)(=O)c1csc(-c2cccc3c2CCCC3)n1 [Example 157] | 100 to 500
O=C(O)c1ccc(NS(=O)(=O)c2cnc(-c3ccc(F)cc3)s2)c2ncccc12 [Example 82] | 1000 to 100000
COc1cc(S(N)(=O)=O)ccc1NS(=O)(=O)c1cnc(-c2ccc(F)cc2)s1 [Example 119] | 1000 to 100000
COc1cc(C(=O)O)c(F)cc1NS(=O)(=O)c1ccc2sc(-c3ccc([C@H]4CC[C@H](C(C)C)CC4)cc3C(F)(F)F)nc2c1 [Example 798] | 100 to 500
COc1cc(C(=O)O)ccc1NS(=O)(=O)c1csc(-c2ccc(-c3ccccc3)cc2F)n1 [Example 304] | 500 to 1000
COc1cc(C(=O)O)c(F)cc1NS(=O)(=O)c1csc(-c2ccc(-c3cc(F)c(C(F)(F)F)c(F)c3)c(OC(C)C)c2F)n1 [Example 790] | < 100
COc1cc(C(=O)O)c(F)cc1NS(=O)(=O)c1csc(C#Cc2cccc(C)c2)n1 [Example 236] | < 100
COc1cc(C(=O)O)c(F)cc1NS(=O)(=O)c1ccn(-c2ccc(C3CCCCC3)cc2)n1 [Example 689] | 100 to 500
COc1cc(C(=O)O)c(F)cc1NS(=O)(=O)c1cccc(-c2ccc(C3=CC[C@H](C(C)(C)C)CC3)cc2)c1F [Example 499] | < 100
O=S(=O)(Nc1ccc(Br)cc1C(F)F)c1cnc(-c2ccc(F)cc2)s1 [Example 111] | 1000 to 100000
CCC[C@H]1CC[C@H](C2CCC(c3nc(S(=O)(=O)Nc4ccc(C(=O)O)cc4OC)cs3)CC2)CC1 (some centres unmarked) [Example 381] | 100 to 500
COc1cc(C(=O)O)c(F)cc1NS(=O)(=O)c1coc(-c2ccc([C@H]3CC[C@@H](C(F)(F)F)CC3)cc2)n1 [Example 493] | < 100
COc1cc(C(=O)O)c(F)cc1NS(=O)(=O)c1csc(-c2ccc([C@H]3CC[C@H](C(C)(C)C)CC3)cc2)n1 [Example 762] | < 100
CC1(C)CCC(c2ccc(-c3nc(S(=O)(=O)Nc4ccc(C(=O)O)cc4)cs3)cc2)CC1 [Example 660] | 100 to 500
COc1ccc(OC(F)(F)F)cc1C#Cc1nc(S(=O)(=O)Nc2ccc(C(=O)O)cc2OC)cs1 [Example 402] | 100 to 500
O=C(O)c1ccc(NS(=O)(=O)c2csc(N3CCC(F)(F)CC3)n2)cc1 [Example 58] | 1000 to 100000
COc1cc(C(=O)O)ccc1NS(=O)(=O)N1CCN(c2ccc(OC(F)(F)F)cc2)C(=O)C1 [Example 317] | 1000 to 100000
COc1cc(C(=O)O)ccc1NS(=O)(=O)N1CCN(c2nccs2)CC1 [Example 314] | > 100000
